{"source": "patent EP0952771B1", "about": "“NOVEL SAPONIN COMPOSITIONS AND USES THEREOF” (priority 1996, dated 1998)", "key": {"mice": {"tested_on": "mice", "conditions": "mouse, in vivo; cited from earlier work"}, "E.G7-OVA target cells": {"tested_on": "E.G7-OVA target cells", "experiment": "Cytotoxic T lymphocyte (CTL) 51Cr cytotoxicity assay with splenic mononuclear cells of immunized mice", "format": "in vivo, C57BL/6 mice", "conditions": "subcutaneously at week 1, 3 and 5", "procedure": "(§1) All experiments were carried out in C57BL/6 mice (female, 8-12 weeks of age). The synergistic adjuvant-effect of the QS-21/QS-7 mixtures was assessed by two parameters: (1) the ability of these mixtures to improve antibody titers to a subunit antigen, ovalbumin, in mice; and (2) the ability of these mixtures to improve an ovalbumin-specific cytotoxic T lymphocyte (killer cell) response in mice.\nThe experimental techniques were the following. The mice were immunized subcutaneously at week 1, 3, and 5 with 0.2 ml of the indicated formulations in phosphate-buffered saline. Mice were immunized in groups of five. Sera and spleens were harvested at weeks 7 to 9. Sera was assayed for anti-ovalbumin antibody response by enzyme immunoassay. Briefly, a 96 well Immulon plate was coated with 10 µg/ml ovalbumin in phosphate-buffered saline (PBS) overnight at 4°C. These plates were blocked with 10% normal goat serum in PBS (diluent) for one hour at room temperature. Serial 1:10 dilutions of serum were made in diluent and were incubated on the plates for one hour at room temperature or overnight at 4°C. An enzyme conjugate of anti-mouse IgG (or anti-mouse IgG subclass) was diluted in diluent and incubated on the plate. A colorimetric enzyme substrate, tetramethylbenzidine, was used to assay for binding of anti-ovalbumin antibody. Spleens from immunized mice were used to assay for the cytotoxic T lymphocyte (CTL) response. The effector cells for the (CTL) assay were splenic mononuclear cells from the harvested spleens. The antigen-positive target cells for the assay were E.G7-OVA cells, which are an MHC class II antigen-negative EL4 mouse cell line, transfected with the ovalbumin gene. […] EL4 cells were used as an ovalbumin-negative target cell line. Prior to assay, splenic mononuclear cells were stimulated with antigen to induce maturation of precursor CTL in the effector cell population. The antigens used for stimulation were mitomycin C treated E.G7-OVA cells (incubated with spleen cells at a ratio of 20:1 spleen cells: E.G7-OVA cells) or denatured ovalbumin (25 µg/ml). […]"}, "anti-ovalbumin antibody": {"tested_on": "anti-ovalbumin antibody", "experiment": "Anti-ovalbumin antibody response in serum by enzyme immunoassay", "format": "in vivo, C57BL/6 mice", "conditions": "0.625 µg given individually; titer not higher than no adjuvant", "procedure": "as §1\nThe experimental techniques were the following. The mice were immunized subcutaneously at week 1, 3, and 5 with 0.2 ml of the indicated formulations in phosphate-buffered saline. Mice were immunized in groups of five. Sera and spleens were harvested at weeks 7 to 9. Sera was assayed for anti-ovalbumin antibody response by enzyme immunoassay. Briefly, a 96 well Immulon plate was coated with 10 µg/ml ovalbumin in phosphate-buffered saline (PBS) overnight at 4°C. These plates were blocked with 10% normal goat serum in PBS (diluent) for one hour at room temperature. Serial 1:10 dilutions of serum were made in diluent and were incubated on the plates for one hour at room temperature or overnight at 4°C. An enzyme conjugate of anti-mouse IgG (or anti-mouse IgG subclass) was diluted in diluent and incubated on the plate. A colorimetric enzyme substrate, tetramethylbenzidine, was used to assay for binding of anti-ovalbumin antibody. […]"}, "ovalbumin antigen": {"tested_on": "ovalbumin antigen", "conditions": "doses below 2.5 µg; cited from earlier work"}, "ovalbumin": {"tested_on": "ovalbumin", "conditions": "at 2.5 µg or lower; cited from earlier work"}}, "data": [{"substance": "QS-21", "values": [{"measurement": "toxicity in mice", "setting": "mice", "value": "least toxic"}, {"measurement": "stimulating a CTL response", "setting": "E.G7-OVA target cells; saponin dose 0.625 µg given alone with ovalbumin", "value": "ineffective"}, {"measurement": "stimulating a CTL response", "setting": "E.G7-OVA target cells; saponin dose 1.25 µg given alone with ovalbumin", "value": "ineffective"}, {"measurement": "stimulating a CTL response", "setting": "E.G7-OVA target cells; saponin dose 20 µg given alone with ovalbumin", "value": "highly effective"}, {"measurement": "titer compared with no adjuvant", "setting": "anti-ovalbumin antibody", "value": "suboptimal"}, {"measurement": "adjuvant for raising an antibody response to the ovalbumin antigen", "setting": "ovalbumin antigen", "value": "ineffective"}, {"measurement": "cytotoxic T lymphocyte (CTL) response to ovalbumin", "setting": "ovalbumin", "value": "minimal"}]}]}
